Measurements published in paper PMC3057712 (Molecular Biology of the Cell, 2011).

Biological target: T1, Sfh1 (Saccharomyces cerevisiae, UniProt P33324)
T1 sequence (P33324 1-310): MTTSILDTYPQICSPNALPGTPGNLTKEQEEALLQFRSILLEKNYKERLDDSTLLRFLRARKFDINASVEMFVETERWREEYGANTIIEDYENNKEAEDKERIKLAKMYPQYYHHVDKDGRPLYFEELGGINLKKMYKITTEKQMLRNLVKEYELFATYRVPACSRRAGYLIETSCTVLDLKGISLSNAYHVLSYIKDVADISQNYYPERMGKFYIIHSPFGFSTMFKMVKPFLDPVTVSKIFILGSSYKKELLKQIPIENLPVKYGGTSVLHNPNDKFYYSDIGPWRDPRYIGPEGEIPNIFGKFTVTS
Assay: CW X-band EPR, loading from multilamellar liposomes
Type: binding
Conditions: 130 μM protein, twofold molar excess of lipid, pH 6.8, 23°C; labelled compound

## 1-acyl-2-(n-(4,4-dimethyloxazolidine-N-oxyl)stearoyl)-sn-glycero-3-phosphocholines [16-doxyl-PtdCho]
  % of total protein loaded: ~ 20%
